According to patent US9440950B2, “Arginine methyltransferase inhibitors and uses thereof” (Epizyme, Inc., priority 2013, dated 2016):

Biological target: T1, human PRMT8 (Homo sapiens, UniProt Q9NR22)
T1 construct: Full-length human PRMT8 (NM_019854.4) isoform 1 transcript clone; made in house
Assay: PRMT8 Biochemical Assay
Settings: peptide substrate, 3H-SAM Flashplate assay
Excerpt: S-adenosylmethionine (SAM), S-adenosylhomocysteine (SAH), bicine, Tween20, dimethylsulfoxide (DMSO), bovine skin gelatin (BSG), isopropyl-P3-D-thiogalactopyranoside (IPTG), and Tris(2-carboxyethyl)phosphine hydrochloride solution (TCEP) were purchased from Sigma-Aldrich at the highest level of purity possible. ^3H-SAM was purchase from American Radiolabeled Chemicals with a specific activity of 80 Ci/mmol. 384-well streptavidin Flashplates were purchased from PerkinElmer.
Peptide representative of human histone H4 residues 31-45 was synthesized with an N-terminal linker-affinity tag motif and a C-terminal amide cap by 21st Century Biochemicals. The peptide was purified by high-performance liquid chromatography (HPLC) to greater than 95% purity and confirmed by liquid chromatography mass spectrometry (LC-MS). The sequence was Biot-Ahx-[…]-amide (SEQ ID NO.:8).
The resulting construct encodes an N-terminal GST tag and a thrombin cleavage sequence ([…] […] […] […]) (SEQ ID NO.:9) fused directly to Met 1 of PRMT8.
E. coli (BL21(DE3) Gold, Stratagene) made competent by the CaCl2 method were transformed with the PRMT8 construct and ampicillin selection. Protein over-expression was accomplished by growing the PRMT8 expressing E. coli clone and inducing expression with 0.3 mM IPTG at 16° C. The culture was grown for 12 hours, harvested by centrifugation, and stored at −80° C. for purification.
The column was washed with 50 mM phosphate buffer, 100 mM NaCl, 5% glycerol, 5 mM β-mercaptoethanol, pH 7.8 and PRMT8 was eluted by 100 mM phosphate in the same buffer. Protein was concentrated and buffer was exchanged to 50 mM Tris, 300 mM NaCl, 10% glycerol, 5 mM β-mercaptoethanol, pH 7.8 by ultrafiltration. The purity of recovered protein was 89%.
General Procedure for PRMT8 Enzyme Assays on Peptide Substrates.
The assays were all performed in a buffer consisting of 20 mM Bicine (pH=7.6), 1 mM TCEP, 0.005% BSG, and 0.002% Tween 20, prepared on the day of use. Compounds in 100% DMSO (1 ul) were spotted into a polypropylene 384-well V-bottom plates (Greiner) using a Platemate Plus outfitted with a 384-channel head (Thermo Scientific). DMSO (1 ul) was added to Columns 11, 12, 23, 24, rows A-H for the maximum signal control and 1 ul of SAH, a known product and inhibitor of PRMT8, was added to columns 11, 12, 23, 24, rows I-P for the minimum signal control. A cocktail (40 ul) containing the PRMT8 enzyme was added by Multidrop Combi (Thermo-Fisher). The compounds were allowed to incubate with PRMT8 for 30 min at room temperature, then a cocktail (10 ul) containing ^3H-SAM and peptide was added to initiate the reaction (final volume=51 ul). The final concentrations of the components were as follows: PRMT8 was 1.5 nM, ^3H-SAM was 50 nM, non-radiolabeled SAM was 550 nM, peptide was 150 nM, SAH in the minimum signal control wells was 1 mM, and the DMSO concentration was 2%. The assays were stopped by the addition of non-radiolabeled SAM (10 ul) to a final concentration of 400 uM, which dilutes the ^3H-SAM to a level where its incorporation into the peptide substrate is no longer detectable. 50 ul of the reaction in the 384-well polypropylene plate was then transferred to a 384-well Flashplate and the biotinylated peptides were allowed to bind to the streptavidin surface for at least 1 hour before being washed once with 0.1% Tween20 in a Biotek ELx405 plate washer. The plates were then read in a PerkinElmer TopCount plate reader to measure the quantity of ^3H-labeled peptide bound to the Flashplate surface, measured as disintegrations per minute (dpm) or alternatively, referred to as counts per minute (cpm).
Where dpm=disintegrations per minute, cmpd=signal in assay well, and min and max are the respective minimum and maximum signal controls.
Where top and bottom are the normally allowed to float, but may be fixed at 100 or 0 respectively in a 3-parameter fit. […]

T1 sequence (Q9NR22 whole entry, canonical isoform): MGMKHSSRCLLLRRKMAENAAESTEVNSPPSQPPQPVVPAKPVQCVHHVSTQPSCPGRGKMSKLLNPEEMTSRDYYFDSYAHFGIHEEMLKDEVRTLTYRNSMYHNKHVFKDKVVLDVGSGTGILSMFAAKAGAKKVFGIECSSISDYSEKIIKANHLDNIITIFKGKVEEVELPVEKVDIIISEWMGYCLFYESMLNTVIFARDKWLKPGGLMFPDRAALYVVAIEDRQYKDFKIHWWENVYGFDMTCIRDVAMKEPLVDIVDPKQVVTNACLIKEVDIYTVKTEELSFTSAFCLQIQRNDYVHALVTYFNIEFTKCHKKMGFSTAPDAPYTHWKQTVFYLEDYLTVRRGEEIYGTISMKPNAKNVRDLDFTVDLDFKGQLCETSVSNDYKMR

| Compound | IC50 [µM] |
| --- | --- |
| CNCCN(C)Cc1c[nH]nc1-c1cccnc1 [Compound 1] | 1.01 to 3 |
| CN(CCN)Cc1c[nH]nc1-c1cncc(S(C)(=O)=O)c1 [Compound 4] | ≥ 10 |
| CN(CCN)Cc1c[nH]nc1-c1cncc(F)c1 [Compound 7] | 1.01 to 3 |
| COc1cc(-c2n[nH]cc2CN(C)CCN)c(Cl)cn1 [Compound 12] | 3.01 to 10 |
| COc1ncc(Cl)cc1-c1n[nH]cc1CN(C)CCN [Compound 14] | 3.01 to 10 |
| COc1ncccc1-c1n[nH]cc1CN(C)CCN [Compound 15] | 1.01 to 3 |
| COc1ccncc1-c1n[nH]cc1CN(C)CCN [Compound 16] | 3.01 to 10 |
| Cc1ccncc1-c1n[nH]cc1CN(C)CCN [Compound 17] | 3.01 to 10 |
| CN(CCN)Cc1c[nH]nc1-c1cncc(C#N)c1 [Compound 18] | 3.01 to 10 |
| CN(CCN)Cc1c[nH]nc1-c1cncc(Cl)c1 [Compound 19] | 1.01 to 3 |
| CN(CCN)Cc1c[nH]nc1-c1ccc(N(C)Cc2ccccc2)nc1 [Compound 23] | 0.101 to 1 |
| CN(CCN)Cc1c[nH]nc1-c1ccccn1 [Compound 27] | ≥ 10 |
| CN(CCN)Cc1c[nH]nc1-c1cnccc1C(F)(F)F [Compound 29] | ≥ 10 |

Next, values leading:

| IC50 [µM] | Compound |
| --- | --- |
| ≥ 10 | CNCCN(C)Cc1c[nH]nc1-c1ccc(O)nc1 [Compound 2] |
| 3.01 to 10 | CNCCN(C)Cc1c[nH]nc1-c1ccc(N)nc1 [Compound 3] |
| 1.01 to 3 | COc1ccc(-c2n[nH]cc2CN(C)CCN)cn1 [Compound 5] |
| 1.01 to 3 | Cc1cncc(-c2n[nH]cc2CN(C)CCN)c1 [Compound 6] |
| 1.01 to 3 | CN(CCN)Cc1c[nH]nc1-c1cccnc1 [Compound 8] |
| 0.101 to 1 | CN(CCN)Cc1c[nH]nc1-c1ccncc1 [Compound 9] |
| 0.101 to 1 | Cc1cc(-c2n[nH]cc2CN(C)CCN)cnc1Cl [Compound 10] |
| 1.01 to 3 | COc1cc(-c2n[nH]cc2CN(C)CCN)ccn1 [Compound 11] |
| 0.101 to 1 | CN(CCN)Cc1c[nH]nc1-c1ccc(C(F)(F)F)nc1 [Compound 13, N^1-methyl-N^1-((3-(6-(trifluoromethyl)pyridin-3-yl)-1H-pyrazol-4-yl)methyl)ethane-1,2-diamine] |
| 0.101 to 1 | CN(CCN)Cc1c[nH]nc1-c1ccc(N2CCOCC2)nc1 [Compound 20] |
| 1.01 to 3 | CC(C)CN(C)c1ccc(-c2n[nH]cc2CN(C)CCN)cn1 [Compound 21] |
| 0.101 to 1 | CC(C)Oc1ccc(-c2n[nH]cc2CN(C)CCN)cn1 [Compound 22] |
| 1.01 to 3 | CCN(CC)c1ccc(-c2n[nH]cc2CN(C)CCN)cn1 [Compound 24] |
| 1.01 to 3 | CN(CCN)Cc1c[nH]nc1-c1ccc(NCc2ccccc2)nc1 [Compound 25] |
| 1.01 to 3 | CC(C)CNc1ccc(-c2n[nH]cc2CN(C)CCN)cn1 [Compound 26] |
| 0.101 to 1 | CN(CCN)Cc1c[nH]nc1-c1ccc(C#N)nc1 [Compound 28, 5-(4-(((2-aminoethyl)(methyl)amino)methyl)-1H-pyrazol-3-yl)picolinonitrile] |
